In patent US20180243308A1, “PHARMACEUTICAL COMBINATION” (Boehringer Ingelheim International GmbH, priority 2008, published 2018):

Key:
relapsed ovarian cancer = experiment: Phase II maintenance trial of compound A1 versus placebo; type: in vivo, human
Method: The primary efficacy endpoint of this trial was the Progression Free Survival Rate (PFSR) at 9 months after start of treatment with compound A1. As secondary endpoints PFS rate at 3 months and 6 months, respectively, and time to next anti-tumour treatment were evaluated.
Patients were randomly assigned to receive compound A1 at a dose of 250 mg twice daily or matching placebo. […] Patients were treated until diagnosis of progression of the underlying ovarian cancer disease. Progressive disease, for the analysis of the primary endpoint, was defined as either radiological progression, or tumour marker (CA-125) progression.
In total, 84 patients were entered into the trial. 44 patients were randomised to receive compound A1 at a dose of 250 mg twice daily, and 40 patients to receive matching placebo.

[1] = system: recurrent advanced stage NSCLC
Method: Patients with advanced stage NSCLC, PS 0-1, previously treated with one first line platinum-based chemotherapy regimen were eligible for this trial. […] Tumor assessments were performed at screening and after every second treatment cycle according to RECIST (Response Evaluation Criteria in Solid Tumors).

[2] = system: Calu-6 xenografts (human NSCLC tumor cell line); experiment: subcutaneous Calu-6 NSCLC xenografts, single agents and combination; type: in vivo; details: Calu-6 xenografts in nude mice, end of experiment (38 days of treatment), suboptimal doses
Method: In order to analyse the anti-tumor effects of combining the inhibition of tumor angiogenesis by interfering with the VEGFR signaling cascade with the established anti-proliferative treatment modality of NSCLC with compound B1, the following in vivo experiment was performed. Nude mice carrying established subcutaneous Calu-6 xenografts (human NSCLC tumor cell line) were randomized and treated with either compound B1 or compound A1 alone or with the combination of both drugs.

[3] = system: advanced non-small-cell lung cancer; experiment: Phase II double-blind randomized study of two doses of compound A1; type: in vivo, human; details: for median Progression Free Survival (PFS) time: all patients
Method: This study was conducted as a Phase II double-blind, randomized study of two different doses of orally administered compound A1 in patients with advanced non-small-cell lung cancer who had failed at least one prior chemotherapy regimen. The primary efficacy endpoints evaluated were response rate and time to progression. Important secondary endpoints were survival and tolerability of compound A1.
Patients were randomly assigned to receive compound A1 at a dose of 250 mg twice daily or 150 mg twice daily. The dose of compound A1 could be reduced stepwise to no lower than 100 mg twice daily in case of undue toxicity that would prevent chronic treatment. Patients were treated until diagnosis of progression of the underlying lung cancer disease. Progressive disease, for the analysis of the primary endpoint, was defined as radiological evidence of tumour progression according to RECIST criteria.
This randomized study enrolled 73 patients in total, 36 patients at the dose of 250 mg twice daily and 37 patients at the dose of 150 mg twice daily.
The ECOG performance status score is a scale from 0 to 5 with criteria used by doctors and researchers to assess how a patient's disease is progressing, assess how the disease affects the daily living abilities of the patient, and determine appropriate treatment and prognosis (Oken, M. M., Creech, R. H., Tormey, D. C., Horton, J., Davis, T. E., McFadden, E. T., Carbone, P. P.: Toxicity And Response Criteria Of The Eastern Cooperative Oncology Group. Am J Clin Oncol 5:649-655, 1982). […] Overall Survival (OS) time is defined as the length of time a patient lives after they are diagnosed with or treated for a disease.

HT-29 = experiment: in vivo anti-tumor efficacy, HT-29 xenograft model; details: Colorectal, HT-29, 100 mg/kg/d
Calu-6 = experiment: in vivo anti-tumor efficacy, Calu-6 xenograft model; details: Lung (non-small-cell), Calu-6, 50 mg/kg/d
GS-9L = experiment: in vivo anti-tumor efficacy, GS-9L syngeneic rat tumor model; details: Glioblastoma, 50 mg/kg/d
HT-29 large tumors = experiment: in vivo anti-tumor efficacy, HT-29 large tumors; details: Colorectal
Caki-1 = experiment: in vivo anti-tumor efficacy, Caki-1 xenograft model; details: Renal, Caki-1, 100 mg/kg/d
NCI-H460 = experiment: in vivo anti-tumor efficacy, NCI-H460 xenograft model; details: Lung (non-small-cell), NCI-H460, 25 mg/kg/d
PAC-120 = experiment: in vivo anti-tumor efficacy, PAC-120 xenograft model; details: Prostate (hormone-dependent), PAC-120, 100 mg/kg/d
FaDu = experiment: in vivo anti-tumor efficacy, FaDu xenograft model; details: Head and neck, 100 mg/kg/d
Rip-Tag = experiment: in vivo anti-tumor efficacy, Rip-Tag murine transgenic pancreas model
SKOV3 = experiment: in vivo anti-tumor efficacy, SKOV3 xenograft model; details: Ovarian, SKOV3, 50 mg/kg/d
[4] = 250 mg twice daily maintenance, preliminary data output

CCS(=O)(=O)O.COC(=O)c1ccc2c(c1)NC(=O)/C2=C(\Nc1ccc(N(C)C(=O)CN2CCN(C)CC2)cc1)c1ccccc1 [compound A1, 3-Z-[1-(4-(N-((4-methyl-piperazin-1-yl)-methylcarbonyl)-N-methyl-amino)-anilino)-1-phenyl-methylene]-6-methoxycarbonyl-2-indolinone-monoethanesulphonate]
PFS rate at 6 months (24 weeks) (relapsed ovarian cancer; [4]): 28.3%
PFS rate at 9 months (36 weeks) (relapsed ovarian cancer; [4]): 16.5%
median time to progression (relapsed ovarian cancer; based on radiological data, disregarding tumour marker progression): 143 days
PFS rate at 3 months (12 weeks) (relapsed ovarian cancer; versus placebo arm): not different between arms
time between tumour marker progression and radiological progression (relapsed ovarian cancer; versus placebo arm): longer
period the patient with the CR has been maintained on monotherapy ([1]; compound A1 monotherapy after combination stage): over 63 weeks
Maximum Tolerated Dose (MTD) of compound A1 ([1]; in combination with standard dose of compound B1 (500 mg/m^2)): 200 mg bid
T/C value [2]: 33%
Overall Survival (OS) time ([3]; 150 mg twice daily): 144 days
median Progression Free Survival (PFS) time ([3]; 150 mg twice daily): 48 days
Overall Survival (OS) time ([3]; 250 mg twice daily): 208 days
median Progression Free Survival (PFS) time ([3]; 250 mg twice daily): 53 days
median overall survival (OS) ([3]; all patients (ECOG 0-2)): 153 days
median PFS ([3]; baseline ECOG of 0 or 1, 150 mg twice daily): 81 days
median PFS ([3]; baseline ECOG of 0 or 1, 250 mg twice daily): 85 days
patients with stable disease ([3]; baseline ECOG of 2): one of the 17 patients
reduction (partial response) in tumor size ([3]; one patient, 250 mg twice daily, sustained through 9 months): 74%
median OS ([3]; patients with ECOG score of 0-1): 264 days
patients achieving clinical benefit ([3]; subgroup with ECOG 0 or 1): ~60%

COC(=O)c1ccc2c(c1)NC(=O)/C2=C(\Nc1ccc(N(C)C(=O)CN2CCN(C)CC2)cc1)c1ccccc1 [compound A, 3-Z-[1-(4-(N-((4-methyl-piperazin-1-yl)-methylcarbonyl)-N-methyl-amino)-anilino)-1-phenyl-methylene]-6-methoxycarbonyl-2-indolinone]
T/C (HT-29): T/C 16% @ 100 mg/kg/d
T/C (Calu-6): T/C 24% @ 50 mg/kg/d
T/C (GS-9L): T/C 32% @ 50 mg/kg/d
Efficacy (HT-29 large tumors): tumor volume reduction
T/C (Caki-1): T/C 13% @ 100 mg/kg/d
T/C (NCI-H460): T/C 54% @ 25 mg/kg/d
T/C (PAC-120): T/C 34% @ 100 mg/kg/d
T/C (FaDu): T/C 11% @ 100 mg/kg/d
Efficacy (cell wraps: interference with tumor formation) (Rip-Tag): interference with
T/C (SKOV3): T/C 19% @ 50 mg/kg/d

Nc1nc2[nH]cc(CCc3ccc(C(=O)N[C@@H](CCC(=O)[O-])C(=O)[O-])cc3)c2c(=O)[nH]1.[Na+].[Na+] [compound B1, N-[4-[2-(2-amino-4,7-dihydro-4-oxo-1H-pyrrolo[2,3-d]pyrimidin-5-yl)ethyl]benzoyl]-L-Glutamic acid, disodium salt, heptahydrate, reference compound]
T/C value [2]: 46%
